Measurements published in patent US10596145B2, “Heterocyclic flavone derivatives, compositions, and methods related thereto” (Emory University, priority 2012, dated 2020).
Entries after “also recorded” stand apart in the source; their conditions may differ.

Key:
[1] = In vivo pharmacokinetic studies in mice; parameters: species or system mouse; settings: in vivo
Protocol: For compound a, the standard dosage of 1 mg/kg via i.v. injection and 5 mg/kg for P.O. route was employed. […] Presumably, the dosage is too low for the in vivo PK assay. Thus, the doses of the tested compound o were increased. […] Moreover, the bioavailability is around 2% for compound o at a 10 mg/kg dosage.
Twenty to thirty grams mice within the age of 6-8 weeks old were administrated with the indicated compounds i. v. or orally. At different time points (3, 10, 30, 60, 120, 240, 360 and 480 min), blood aliquots (300-400 μl) were collected in tubes coated with lithium heparin, mixed gently, then kept on ice and centrifuged at 2500×g for 15 min at 4° C., within 1 h of collection. The plasma was then harvested and kept frozen at −20° C. until further processing. For each time point, 3 mice/group were employed. The plasma samples were analyzed by HPLC.

[2] = molecular target: T1, TrkB (Rattus norvegicus, UniProt Q63604); experiment: TrkB activation in primary cortical neurons (immunoblotting); assay type: cell-based; settings: 500 nM, 15 min
T1 construct: endogenous in cells; host or cells: primary cortical neurons from E17 rat embryos
Protocol: Primary cortical cultures from E17 rat embryos were treated with 500 nM of various synthetic flavone derivatives for 15 min. The cell lysates (20 μg) were analyzed by the immunoblotting.
Rat primary neurons were treated with 500 nM various indicated compounds from 15 min. The neuronal lysates ([…]) were analyzed with various antibodies.
500 nM of different synthetic compounds were added to DIV 7 neurons for 15 min. The cell lysates were analyzed by immunoblotting with indicated p-Akt 473 antibodies.
Replacing the 3′-dimethylamino group or 4′-morpholino group was tested for TrkB agonistic activity. To compare the TrkB activation by these compounds, primary cortical cultures were prepared and treated them with 500 nM of various compounds for 15 min and collected the cell lysates. […] The p-Akt ELISA analysis results were similar to the TrkB activation pattern (FIG. 2B, lower panel).

[3] = molecular target: T2, TrkB (Mus musculus, UniProt P15209); experiment: TrkB phosphorylation in mouse brain after oral administration (immunoblotting, immunohistochemistry); assay type: in vivo
T2 construct: from tissue; host or cells: mouse brain (hippocampus, cortex), C57BL/6
Protocol: One mg/kg of various indicated compounds were orally administrated into C57 BL/6J mice and TrkB phosphorylation and its downstream signaling cascades including Akt and MAPK in the hippocampus of mouse brain were analyzed by immunoblotting at 4 h. […] The downstream p-Akt and p-MAPK activity coupled to the TrkB activation patterns.
Time course assay with 4′-dimethylamino-7,8-imidazole flavone. One mg/kg of compound (i) and compound (m) were orally administrated into C57 BL/6J mice and TrkB phosphorylation and its downstream signaling cascades including Akt in mouse brain were analyzed by immunoblotting at various time points. TrkB activation by compound m peaked at 4 h, whereas the maximal TrkB activation by compound i in mouse brain occurred at 1-2 h. Arrows indicate the p-TrkB in mature glycosylated or unglycosylated forms (top panels). The downstream Akt activation pattern tightly correlated with the upstream TrkB activation.
Male C57BL/6 mice aged of two months were administrated orally with 4′-DMA-7,8-DHF derivatives at a single dose of 1 mg/kg for 4 h. The control mice were injected with saline. The mice were sacrificed and brains were homogenated and ultracentrafuged. The supernatant (40 μg) was employed for SDS-PAGE and immunoblotting analysis with indicated antibodies, respectively. Male C57BL/6 mice aged of two months were administrated orally with compound (i) or (m) at the dose of 5 mg/kg/day each and compound o or p at the dose of 2.5 mg/kg/day each for 21 days. BrdU (100 mg/kg) was i. p. injected two hours before the TrkB agonist treated animals were sacrificed and the hippocampal section lysates were analyzed by immunoblotting with p-TrkB and total TrkB antibodies, p-AKT ELISA.
Brain tissues were fixed in 4% paraformaldehyde overnight followed by paraffin embedding. Sections of 6 μm were cut. For immunohistochemical staining, brain sections were deparaffinized in xylene and rehydrated in graded alcohols. Endogenous peroxidase activity was blocked by 3% hydrogen peroxide for 5 min and all slides were boiled in 10 mM sodium citrate buffer (pH 6.0) for 10 min. Phosphorylated TrkB 816 and TrkB were detected using specific antibodies. Paraffin section were deparaffinized in xylene and rehydrated gradient ethanol solution. Samples were boiled in 10 mM sodium citrate buffer for 20 min for antigen retrieval purpose. Brain sections were incubated with anti-TrkB (BD Biosciences, San Jose, Calif.) 1:50, p-TrkB 1:300 dilution. Secondary antibody was applied using anti-rabbit-Alexa 594 (red), anti-mouse-fluorescein isothiocyanate (FITC) (green). DAPI (blue) was used for nuclear staining.

T2 sequence (P15209 32-821): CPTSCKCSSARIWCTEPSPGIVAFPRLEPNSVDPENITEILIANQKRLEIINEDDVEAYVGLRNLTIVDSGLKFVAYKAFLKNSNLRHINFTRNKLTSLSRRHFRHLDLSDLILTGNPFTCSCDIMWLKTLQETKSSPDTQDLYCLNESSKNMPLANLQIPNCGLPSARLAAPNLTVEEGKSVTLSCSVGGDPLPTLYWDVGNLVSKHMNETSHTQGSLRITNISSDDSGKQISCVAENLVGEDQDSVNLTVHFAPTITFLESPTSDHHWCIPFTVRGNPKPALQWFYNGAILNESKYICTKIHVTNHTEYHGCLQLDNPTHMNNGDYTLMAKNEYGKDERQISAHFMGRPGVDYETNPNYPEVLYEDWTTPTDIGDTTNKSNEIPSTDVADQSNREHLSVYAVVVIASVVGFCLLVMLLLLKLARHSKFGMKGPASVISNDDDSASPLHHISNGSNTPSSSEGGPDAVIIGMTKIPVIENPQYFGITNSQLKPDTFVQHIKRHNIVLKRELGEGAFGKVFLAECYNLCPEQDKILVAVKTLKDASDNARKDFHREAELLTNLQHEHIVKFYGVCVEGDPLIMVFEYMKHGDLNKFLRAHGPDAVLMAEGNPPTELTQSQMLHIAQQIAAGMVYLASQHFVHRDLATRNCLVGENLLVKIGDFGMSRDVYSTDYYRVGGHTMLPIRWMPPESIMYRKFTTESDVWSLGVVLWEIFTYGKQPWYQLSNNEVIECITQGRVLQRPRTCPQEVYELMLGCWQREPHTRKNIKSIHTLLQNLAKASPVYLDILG
T1 sequence (Q63604 32-821): as the sequence (P15209 32-821) above, with T3M, S9T, A10T, V32I, R63K, S84G, M153T, L185I, S394T, S770N counted along it

Q: For `Cc1nc2ccc3c(=O)cc(-c4ccc(N5CCCC5)cc4)oc3c2[nH]1` [compound o, 2-methyl-8-(4-(pyrrolidin-1-yl)phenyl)chromeno[7,8-d]imidazol-6(1H)-one], which half-life ([1]; C57BL/6, mouse, 3 mg/kg) is on record?
A: ~1.72 h

Q: What about the oral bioavailability ([1]; C57BL/6, mouse, po, 10 mg/kg) of the same molecule?
A: 2%

Q: What about the AUC(0-t) ([1]; mouse, 3 mg/kg) of the same molecule?
A: ~312 ng·h/mL

Q: What about the bioavailability ([1]; mouse, po, 10 mg/kg) of the same molecule?
A: ~2%

Q: What about the “TrkB activation (p-TrkB immunoblotting)” value [2] of the same molecule?
A: higher agonistic activity than compound m

Q: And the “TrkB activation (p-TrkB immunoblotting)” value ([2]; listed as 4′-pyrrolidino-7,8-methyl-imidazole-flavone)?
A: triggers TrkB activation in primary neurons

Q: What about the “TrkB activation in mouse brain” value ([3]; 1 mg/kg oral, hippocampus, at 2 h) of the same molecule?
A: triggers TrkB activation in mouse brain

Q: And the “TrkB phosphorylation after chronic treatment (immunoblotting)” value ([3]; 2.5 mg/kg/day oral, 21 days)?
A: markedly activated TrkB receptor; also recorded: evidently elevated TrkB phosphorylation

Q: And the “TrkB phosphorylation in hippocampus (immunohistochemistry, anti-p-TrkB 816)” value ([3]; 2.5 mg/kg/day oral, chronic)?
A: elevated TrkB phosphorylation in hippocampus
